Results: patent US8183371B2, “Pyrazines as delta opioid receptor modulators” (Janssen Pharmaceutica NV, priority 2009, dated 2012)
Values belong to the compound of their own block, whether it stands above or below them.

Legend:
[1] = target: T1, delta opioid receptor (Rattus norvegicus, UniProt P33533); test: Rat brain delta opioid receptor binding assay; settings: rat forebrain membranes; ~4 nM [3H]DPDPE; read-out: δ-binding (DPDPE ligand) Ki
T1 construct: from tissue; host or cells: forebrain of male Wistar rats
T1 sequence (P33533 whole entry): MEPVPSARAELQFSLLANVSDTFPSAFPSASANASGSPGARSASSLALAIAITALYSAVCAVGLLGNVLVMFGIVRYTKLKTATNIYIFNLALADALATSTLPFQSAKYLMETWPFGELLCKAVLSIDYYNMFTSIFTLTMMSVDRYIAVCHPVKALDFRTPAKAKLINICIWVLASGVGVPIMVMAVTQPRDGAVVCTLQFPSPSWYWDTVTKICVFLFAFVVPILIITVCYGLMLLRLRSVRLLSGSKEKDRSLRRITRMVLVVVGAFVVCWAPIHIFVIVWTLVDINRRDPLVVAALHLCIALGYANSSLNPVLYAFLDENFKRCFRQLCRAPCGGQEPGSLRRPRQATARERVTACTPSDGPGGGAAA
Procedure: (§1) Procedure: Male, Wistar rats (150-250 g, VAF, Charles River, Kingston, N.Y.) were killed by CO2, and their brains were removed and placed immediately in ice cold Tris HCl buffer (50 mM, pH 7.4). The forebrains were separated from the remainder of the brain by a coronal transection, beginning dorsally at the colliculi and passing ventrally through the midbrain-pontine junction. After dissection, the forebrains were homogenized in Tris buffer in a Teflon®-glass homogenizer. The homogenate was diluted to a concentration of 1 g of forebrain tissue per 80 mL Tris and centrifuged at 39,000×g for 10 min. The pellet was resuspended in the same volume of Tris buffer containing 5 mM MgCl2 with several brief pulses from a Polytron homogenizer. This particulate preparation was used for the delta opioid binding assays. Following incubation with the delta selective peptide ligand ˜4 nM [^3H]DPDPE or 0.25 nM [^3H]naltrindole at 25° C. for 2.5 h in a 96-well plate with total volume of 1 mL, the plate contents were filtered through Wallac filtermat B sheets on a Tomtec 96-well harvester. The filters were rinsed three times with 2 mL of 10 mM HEPES (pH 7.4), and dried in a 650 W microwave oven for 1.75 min twice. To each sample area 2×50 μL of Betaplate Scint scintillation fluid (LKB) was added and the radioactivity was quantified on a LKB (Wallac) 1205 BetaPlate liquid scintillation counter.
(§2) Analysis: The data from the scintillation counter were used to calculate either the % inhibition compared to control binding (when only a single concentration of test compound was evaluated) or a Ki value (when a range of concentrations was tested). Percent inhibition was calculated as: [(total dpm−test compound dpm)/(total dpm−nonspecific dpm)]*100. Kd and Ki values were calculated using GraphPad PRISM data analysis program.

[2] = target: T2, mu opioid receptor (Rattus norvegicus, UniProt P33535); test: Rat brain mu opioid receptor binding assay; settings: rat forebrain membranes; ~0.8 nM [3H]DAMGO; read-out: μ-binding Ki
T2 construct: from tissue; host or cells: forebrain of male Wistar rats
T2 sequence (P33535 whole entry): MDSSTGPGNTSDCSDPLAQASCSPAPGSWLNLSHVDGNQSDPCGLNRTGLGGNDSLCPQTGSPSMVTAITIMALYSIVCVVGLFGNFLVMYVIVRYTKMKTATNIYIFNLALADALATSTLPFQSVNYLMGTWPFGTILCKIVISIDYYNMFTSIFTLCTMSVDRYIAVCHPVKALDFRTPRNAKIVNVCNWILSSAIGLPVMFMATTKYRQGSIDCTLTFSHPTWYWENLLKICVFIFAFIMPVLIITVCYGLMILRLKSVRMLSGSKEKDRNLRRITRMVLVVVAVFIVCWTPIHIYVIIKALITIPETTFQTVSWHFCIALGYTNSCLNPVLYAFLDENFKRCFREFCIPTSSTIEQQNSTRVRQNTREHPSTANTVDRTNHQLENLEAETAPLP
Procedure: as §1, with “mu” for “delta”, “ligand, ˜0.8” for “ligand ˜4”, “[^3H]DAMGO,” for “[^3H]DPDPE or 0.25 nM [^3H]naltrindole”, “total assay” for “total”, “7.4)” for “7.4),”, “2×40” for “2×50”
as §2

[3] = target: T3, δ-opioid receptor (Mus musculus, UniProt P32300); test: [35S]GTPγS binding assay in NG108-15 cell membranes (delta opioid functional assay); type: biochemical; settings: for inhibition at 10 µM: 10 μM compound, read-out: GTPγS δ-opioid receptor % Inh @10 μM; for EC50: read-out: GTPγS δ-opioid receptor EC50
T3 construct: NG108-15 cell membranes were purchased from Applied Cell Sciences (Rockville, Md.); host or cells: NG108-15 cell membranes (purchased)
T3 sequence (P32300 whole entry): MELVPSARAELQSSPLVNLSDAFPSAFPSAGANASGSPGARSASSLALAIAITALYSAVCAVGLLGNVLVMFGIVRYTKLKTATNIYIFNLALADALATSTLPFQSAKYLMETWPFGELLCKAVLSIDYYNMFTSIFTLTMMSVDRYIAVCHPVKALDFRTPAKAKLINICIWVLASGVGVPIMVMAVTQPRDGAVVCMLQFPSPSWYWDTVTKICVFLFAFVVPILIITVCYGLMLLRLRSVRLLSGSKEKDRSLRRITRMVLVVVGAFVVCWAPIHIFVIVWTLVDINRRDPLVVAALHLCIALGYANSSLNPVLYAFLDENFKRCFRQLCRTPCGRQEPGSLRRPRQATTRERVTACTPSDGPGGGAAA
Procedure: Methods: NG108-15 cell membranes were purchased from Applied Cell Sciences (Rockville, Md.). 5 mg/mL of membrane protein was suspended in 10 mM TRIS-HCl pH 7.2, 2 mM EDTA, 10% sucrose. Membranes were maintained at 4-8° C. A 1 mL volume of membranes was added into 10 mL cold binding assay buffer. The assay buffer contained 50 mM Tris, pH 7.6, 5 mM MgCl2, 100 mM NaCl, 1 mM DTT and 1 mM EGTA. The membrane suspension was homogenized twice with a Polytron, and centrifuged at 3000 rpm for 10 min. The supernatant was then centrifuged at 18,000 rpm for 20 min. Ten mL of assay buffer was added into the pellet containing tube. The pellet and buffer were mixed with a Polytron.
Incubation procedure: The pellet membranes (75 μg/mL) were preincubated with SPA beads (10 mg/mL) at 25° C. for 45 min in the assay buffer. The SPA beads (5 mg/mL) coupled with membranes (37.5 μg/mL) were then incubated with 0.1 nM [^35S]GTPγS in the same Tris buffer containing 100 μM GDP in total volume of 200 μL. 200 nM of receptor agonists was used to stimulate [^35S]-GTPγS binding. The basal binding was tested in the absence of agonists and non-specific binding was tested in the presence of 10 μM unlabeled GTPγS.
Data % of Basal=(stimulated−non specific)*100/(basal−non specific). Relative Efficacy of a compound at 200 nM=(% of Basal of test compound at 200 nM)/(Calculated Max of SNC80 dose response. Curve in prism).

Structure (SMILES): COc1ccc(Oc2nc(-c3ccc(OC)nc3)cnc2NC[C@@H]2CCCN2)cc1 [Cpd 1]
- Ki [1]: 0.0006 µM
- Ki [2]: 2.39 µM
- GTPγS δ-opioid receptor Rel Efficacy [3]: 0.8696
- inhibition at 10 µM [3]: 6.57%
- EC50 [3]: 0.0585 µM

Structure (SMILES): COc1ccc(Oc2nc(-c3cccnc3)cnc2NC[C@@H]2CCCN2)cc1 [Cpd 2, [3-(4-Methoxy-phenoxy)-5-pyridin-3-yl-pyrazin-2-yl]-pyrrolidin-2-(S)-ylmethyl-amine]
- Ki [1]: 0.0021 µM
- Ki [2]: 0.816 µM
- GTPγS δ-opioid receptor Rel Efficacy [3]: 1.0430
- inhibition at 10 µM [3]: 1%
- EC50 [3]: 0.0297 µM

Now from value to compound:

- Ki [1]: 0.0015 µM
- Ki [2]: 3.24 µM
- GTPγS δ-opioid receptor Rel Efficacy [3]: 1.0797
- inhibition at 10 µM [3]: 1%
- EC50 [3]: 0.0462 µM
Structure (SMILES): COc1ccc(Oc2nc(C#Cc3cccnc3)cnc2NC[C@@H]2CCCN2)cc1 [Cpd 3, [3-(4-Methoxy-phenoxy)-5-pyridin-3-ylethynyl-pyrazin-2-yl]-pyrrolidin-2-(S)-ylmethyl-amine]

- Ki [1]: 0.0019 µM
- Ki [2]: 4.98 µM
- GTPγS δ-opioid receptor Rel Efficacy [3]: 0.9477
- inhibition at 10 µM [3]: 1%
- EC50 [3]: 0.0825 µM
Structure (SMILES): COCC#Cc1cnc(NC[C@@H]2CCCN2)c(Oc2ccc(OC)cc2)n1 [Cpd 4]

- Ki [1]: 0.0008 µM
- Ki [2]: 0.202 µM
- GTPγS δ-opioid receptor Rel Efficacy [3]: 1.0302
- EC50 [3]: 0.148 µM
Structure (SMILES): COc1ccc(Oc2nc(-c3cncnc3)cnc2NC[C@@H]2CCCN2)cc1F [Cpd 8]
